Reference: patent US20170333421A1, “Population Pharmacokinetics of Liposomal Irinotecan” (IPSEN BIOPHARM LTD., priority 2016, published 2017)
Counter-ions that a name gives are not always drawn. Like-named read-outs stand apart in the source and are kept apart here. Each block holds one compound with its values, some of them ahead of it.

Columns and labels:
KP4 = test: CellTiter-Glo cell viability; assay type: cell-based; settings: for IC50: Homo sapiens, KP-4, KP4, 24 h exposure + 72 h recovery
Procedure: (§1) In vitro efficacy study was done using CellTiter-Glo® Luminescent Cell Viability Assay (Promega) with Corning Cat #3707 384well White Clear bottom plates. Cells were plated (1000 cells/well) in 384 well format and allowed to incubate @ 37 C for 24 hours. Monotherapy drugs were added at the 24 hr time point and then allowed to incubate @ 37 C for 24 hours. At the 48 hr time point the drugs in media were removed, washed with PBS, and fresh media was added. Cells were then allowed to incubate @ 37 C for 72 hours. At the 120 hr time point media was removed and CellTiter-Glo (CTG) reagent was added (1:1 ratio with PBS). Plate was read by luminometer (Envision Multilabel reader). More details of this assay can be found in Accelrys Notebook ELN as EXP-15-AC2111.
(§2) All cell lines had been adapted to and were maintained in RPMI with 10% fetal bovine serum and supplemented with penicillin/streptomycin (Invitrogen).
(§3) Data was analyzed using an in-house algorithm developed using Matlab (Mathworks, Natick MA). In summary, average CTG mean luminescent values were computed for 4 replicate wells. Outlier detection was performed by computing the coefficient of variation (CV>20%) and outliers were removed from the average. CTG values were normalized based on a control non-treated well. Drug concentration in microMolar (uM) was log transformed prior to fitting to a 4 parameter logistic curve.
(§4) Data quality control was performed to ensure that the concentration range is optimal according to these rules: (1) if the lowest concentration kills more than 70% of the cells the concentration range is deemed too potent (2) if the highest concentration kills less than 30% of the cells, the concentration range is deemed low or the cell line is too resistant. Additionally, goodness of the fit was evaluated using R^2 and R^2<0.9 is flagged as a bad fit. Statistical analysis was performed using JMP (SAS Institute Inc., NC).
(§5) Pancreatic cell lines were cultured to sub confluent state in 384 well plates prior to incubation with varying doses of SN-38 for 24 hours. Additions 72 hours of culture were performed prior to CTG assessment. Every well was run in 4 replicates, and the entire experiment was run in four different plates. The compared results from the four separate experiments show the reproducibility of the cytotoxic effects of SN-38.

L3.6pL = test: CellTiter-Glo cell viability; assay type: cell-based; settings: for IC50: Homo sapiens, 24 h exposure + 72 h recovery
Procedure: as §1, §2, §3, §4, §5

L3.3 = test: CellTiter-Glo cell viability; assay type: cell-based; settings: for IC50: L3.3, 24 h exposure + 72 h recovery
Procedure: as §1, §2, §3, §4, §5

HPAFII = test: CellTiter-Glo cell viability; assay type: cell-based; settings: for IC50: Homo sapiens, HPAF-II, 24 h exposure + 72 h recovery
Procedure: as §1, §2, §3, §4, §5

PL45 = test: CellTiter-Glo cell viability; assay type: cell-based; settings: for IC50: PL45, 24 h exposure + 72 h recovery
Procedure: as §1, §2, §3, §4, §5

Hs766t = test: CellTiter-Glo cell viability; assay type: cell-based; settings: for IC50: 24 h exposure + 72 h recovery
Procedure: as §1, §2, §3, §4, §5

Colo357 = test: CellTiter-Glo cell viability; assay type: cell-based; settings: for IC50: Homo sapiens, Colo357, 24 h exposure + 72 h recovery
Procedure: as §1, §2, §3, §4, §5

CFPAC1 = test: CellTiter-Glo cell viability; assay type: cell-based; settings: for IC50: Homo sapiens, CFPAC-1
Procedure: as §1, §2, §3, §4, §5

Aspc1 = test: CellTiter-Glo cell viability; assay type: cell-based; settings: for IC50: Homo sapiens, Aspc1, 24 h exposure + 72 h recovery
Procedure: as §1, §2, §3, §4, §5

SU8686 = test: CellTiter-Glo cell viability; assay type: cell-based; settings: for IC50: Homo sapiens, SU.86.86, SU8686, 24 h exposure + 72 h recovery
Procedure: as §1, §2, §3, §4, §5

Miapaca2 = test: CellTiter-Glo cell viability; assay type: cell-based; settings: for IC50: Homo sapiens, MIA PaCa-2
Procedure: as §1, §2, §3, §4, §5

Panc6.03 = test: CellTiter-Glo cell viability; assay type: cell-based; settings: for IC50: Panc6.03, 24 h exposure + 72 h recovery
Procedure: as §1, §2, §3, §4, §5

Panc1 = test: CellTiter-Glo cell viability; assay type: cell-based
Procedure: as §1, §2, §3, §4, §5

SW1990 = test: CellTiter-Glo cell viability; assay type: cell-based; settings: for IC50: Homo sapiens, SW1990, 24 h exposure + 72 h recovery
Procedure: as §1, §2, §3, §4, §5

Capan-2 = test: CellTiter-Glo cell viability; assay type: cell-based
Procedure: as §1, §2, §3, §4, §5

BxPC3 = test: CellTiter-Glo cell viability; assay type: cell-based; settings: for IC50: Homo sapiens, BXPC-3, BxPC3, 24 h exposure + 72 h recovery
Procedure: as §1, §2, §3, §4, §5

pancreatic cell lines = test: CellTiter-Glo cell viability, pancreatic cell panel; assay type: cell-based
Procedure: as §1, §2, §3, §4, §5

clinical = settings: human, in vivo, 300 mg/m2
[1] = NAPOLI-1 observed 5-FU concentration; settings: human, in vivo, intravenous; read-out: 5-FU estimated half-life after the end of infusion
Colorectal Cancer = settings: cited from earlier work
[2] = n 2, read-out: IC50 Log(μM) mean (converted)
[3] = n 3, read-out: IC50 Log(μM) mean (converted)
[4] = n 4, read-out: IC50 Log(μM) mean (converted)
[5] = Kohne 2013, continuous infusion

IC50 (Colo357; [2]): 0.0617 nM
IC50 (Colo357; read-out: IC50(nM) mean): 0.0617 nM
IC50 (Aspc1; [3]): 0.00398 µM
IC50 (Aspc1; read-out: IC50(nM) mean): 0.00398 µM
IC50 (Miapaca2; MiaPaCa2, read-out: IC50 concentration): 0.0042 nM
IC50 (Miapaca2; Miapaca2, 24 h exposure + 72 h recovery, n 3, read-out: IC50 Log(μM) mean (converted)): 0.00417 nM
IC50 (Miapaca2; Miapaca2, 24 h exposure + 72 h recovery, read-out: IC50(nM) mean): 0.0042 nM
IC50 (Panc6.03; [4]): 0.00115 µM
IC50 (Panc6.03; read-out: IC50(nM) mean): 0.00115 µM
IC50 (Panc1; Homo sapiens, PANC-1, Panc1, 24 h exposure + 72 h recovery, n 4, read-out: IC50 Log(μM) mean (converted)): 0.0138 µM
IC50 (Panc1; Homo sapiens, PANC-1, Panc1, 24 h exposure + 72 h recovery, read-out: IC50(nM) mean): 0.0138 µM
IC50 (Panc1; Panc1, 24 h exposure + 72 h recovery, read-out: IC50(nM) mean): 0.0138 µM
IC50 (SW1990; [4]): 0.0871 nM
IC50 (SW1990; read-out: IC50(nM) mean): 0.0871 nM
IC50 (BxPC3; [2]): 0.017 nM
IC50 (BxPC3; read-out: IC50(nM) mean): 0.017 nM
Structure (SMILES): CCc1c2c(nc3ccc(O)cc13)-c1cc3c(c(=O)n1C2)COC(=O)[C@]3(O)CC [SN-38]
IC50 (KP4; [2]): 0.00794 nM
IC50 (KP4; read-out: IC50(nM) mean): 0.0079 nM
Tumor Cell Kill (%) mean (KP4; KP4): 86.62%
Tumor Cell Kill (%) mean (L3.6pL): 95.18%
IC50 (L3.6pL; [2]): 0.00282 nM
IC50 (L3.6pL; read-out: IC50(nM) mean): 0.0028 nM
Tumor Cell Kill (%) mean (L3.3; L3.3): 93.01%
IC50 (L3.3; [2]): 0.00204 nM
IC50 (L3.3; read-out: IC50(nM) mean): 0.002 nM
Tumor Cell Kill (%) mean (HPAFII): 93.24%
IC50 (HPAFII; [3]): 0.00204 µM
IC50 (HPAFII; read-out: IC50(nM) mean): 0.00204 µM
Tumor Cell Kill (%) mean (PL45; PL45): 92.16%
IC50 (PL45; [2]): 0.00355 nM
IC50 (PL45; read-out: IC50(nM) mean): 0.0035 nM
Tumor Cell Kill (%) mean (Hs766t): 86.41%
IC50 (Hs766t; read-out: IC50(nM) mean): 63.1 nM
IC50 (Hs766t; Hs766T, n 2, read-out: IC50 Log(μM) mean (converted)): 63.1 nM
IC50 (Hs766t; Hs766T, read-out: IC50(nM) mean): 63.1 nM
Tumor Cell Kill (%) mean (Colo357; Colo357): 94.47%
Tumor Cell Kill (%) mean (CFPAC1; CFPAC1): 84.74%
IC50 (CFPAC1; CFPAC1, 24 h exposure + 72 h recovery, n 2, read-out: IC50 Log(μM) mean (converted)): 0.00316 nM
IC50 (CFPAC1; CFPAC1, 24 h exposure + 72 h recovery, read-out: IC50(nM) mean): 0.0032 nM
IC50 (CFPAC1; CFPAC1, read-out: IC50 concentration): 0.0032 nM
Tumor Cell Kill (%) mean (Aspc1; Aspc1): 91.61%
IC50 (SU8686; [2]): 0.000692 µM
IC50 (SU8686; read-out: IC50(nM) mean): 0.000692 µM
Tumor Cell Kill (%) mean (SU8686; SU8686): 95.82%
Tumor Cell Kill (%) mean (Miapaca2; Miapaca2): 91.23%
Tumor Cell Kill (%) mean (Panc6.03; Panc6.03): 87.68%
Tumor Cell Kill (%) mean (Panc1; Panc1): 89.54%
Tumor Cell Kill (%) mean (SW1990; SW1990): 91.92%
Tumor Cell Kill (%) mean (Capan-2; Capan-2): 94.61%
IC50 (Capan-2; Capan-2, 24 h exposure + 72 h recovery, read-out: IC50(nM) mean): 20.4 nM
IC50 (Capan-2; Homo sapiens, Capan-2, Capan-2, 24 h exposure + 72 h recovery, n 3, read-out: IC50 Log(μM) mean (converted)): 20.4 nM
IC50 (Capan-2; Homo sapiens, Capan-2, Capan-2, 24 h exposure + 72 h recovery, read-out: IC50(nM) mean): 20.4 nM
Tumor Cell Kill (%) mean (BxPC3; BxPC3): 77.37%
Tumor cell kill rates averaged across all cell lines (pancreatic cell lines): 90%
decrease in cell viability for most cell lines (pancreatic cell lines; 24 h SN-38, additional 72 h culture): around 90%
IC50 (pancreatic cell lines; 24 hours exposure, recovery period of 72 h, read-out: IC50 range across all pancreatic cell lines): 0.001 to 100 nM
IC50 (pancreatic cell lines; basis of the uSN38 threshold, read-out: median IC50 in in-vitro pancreatic cell lines): 0.03 ng/mL

AUC(0-inf) (clinical): 24700 ng·h/mL
Cmax (clinical): 4100 ng/mL
Structure (SMILES): CCc1c2c(nc3ccc(OC(=O)N4CCC(N5CCCCC5)CC4)cc13)-c1cc3c(c(=O)n1C2)COC(=O)[C@]3(O)CC [irinotecan HCl, (S)-4,11-diethyl-3,4,12,14-tetrahydro-4-hydroxy-3,14-dioxo1H-pyrano[3′,4′:6,7] indolizino[1,2-b]quinolin-9-yl-[1,4′bipiperidine]-1′-carboxylate]

half-life [1]: 8 to 14 min
Structure (SMILES): O=c1[nH]cc(F)c(=O)[nH]1 [5-FU, 5-fluorouracil]
Median OS (m) (Colorectal Cancer; Kohne 2013, bolus 463-531 mg/m^2/week): nrd
OS 3 y (Colorectal Cancer; Kohne 2013, bolus): 85%
OS 5 y (Colorectal Cancer; Kohne 2013, bolus): 79%
Median OS (m) (Colorectal Cancer; Kohne 2013, continuous infusion 800-3500 mg/m^2/week, N 797): nrd
OS 3 y (Colorectal Cancer; [5]): 85%
OS 5 y (Colorectal Cancer; [5]): 79%
Overall Survival HR, bolus vs continuous infusion (ref) (Colorectal Cancer; Kohne 2013 PETACC-2, BL 370-425 mg/m^2/d for 5 d q4w, N 804): 0.96
OS HR across different 5-FU dose intensities and dose administrations (Colorectal Cancer; meta-analysis, did not affect OS): 0.96-1.11
